Assay results taken from patent US5438060A, “Method of reducing elevated intraocular pressure” (priority 1994, dated 1995).
Where a name gives a salt, the structure may show the parent alone. Read-outs that look alike come from different tables or passages of the source.

Assays:
intraocular pressure = test: Experiment 1: ocular hypotensive effect of eye drops in rabbits (applanation pneumatonograph); format: in vivo, Male Japanese White rabbits; details: for Difference in IOP between the control and test eyes: 50 μl
Experimental: The ocular hypotensive effect of the eye drops of this invention was investigated in rabbits. The same experiment was also conducted using a representative β-adrenergic blocking agent, and its ocular hypotensive effect was compared with that of eye drops of this invention. Methods: […] […] Male Japanese White rabbits (body weight: ca. 2 kg) with normal intraocular pressure were used in the experiment. […] For each solution, five rabbits were used. After anesthesia of the corneal surface by instillating 5 μl of 0.4%. oxybuprocaine hydrochloride, the intraocular pressure was measured using an applanation pneumatonograph (Alcon) before and after the instillation of the test solution and control solution. Measurement of intraocular pressure after the instillation was conducted with one-hour intervals until six hours post-instillation.

rabbit eyes = test: Experiment 2: eye irritation test (modified Draize test); format: in vivo, Male Japanese White rabbits
[1] = mice, cited from earlier work
[2] = 0.5% eye drops, before instillation

OCCN(CCO)c1nc(N2CCCCC2)c2nc(N(CCO)CCO)nc(N3CCCCC3)c2n1 [Compound (1), dipyridamole]
Difference in IOP between the control and test eyes (intraocular pressure; 0.00005% (free base), 1 hr): -0.60 mmHg
Difference in IOP between the control and test eyes (intraocular pressure; 0.00005% (free base), 2 hr): -0.50 mmHg
Difference in IOP between the control and test eyes (intraocular pressure; 0.00005% (free base), 4 hr): -0.20 mmHg
Difference in IOP between the control and test eyes (intraocular pressure; 0.00005% (free base), 6 hr): -0.10 mmHg
time of maximal IOP reduction after instillation (intraocular pressure; 0.00005% eye drops): one
Difference in IOP between the control and test eyes (intraocular pressure; 0.0001% (free base), 1 hr): -1.30 mmHg
Difference in IOP between the control and test eyes (intraocular pressure; 0.0001% (free base), 2 hr): -0.95 mmHg
Difference in IOP between the control and test eyes (intraocular pressure; 0.0001% (free base), 4 hr): -0.30 mmHg
Difference in IOP between the control and test eyes (intraocular pressure; 0.0001% (free base), 6 hr): -0.20 mmHg
time of maximal IOP reduction after instillation (intraocular pressure; 0.0001% eye drops): one
ocular hypotensive effect remained unchanged after instillation (intraocular pressure; 0.0005% eye drops): 2.0 h
Difference in IOP between the control and test eyes (intraocular pressure; 0.001% (free base), 1 hr): -2.00 mmHg
Difference in IOP between the control and test eyes (intraocular pressure; 0.001% (free base), 2 hr): -1.56 mmHg
Difference in IOP between the control and test eyes (intraocular pressure; 0.001% (free base), 4 hr): -1.00 mmHg
Difference in IOP between the control and test eyes (intraocular pressure; 0.001% (free base), 6 hr): -0.75 mmHg
time of maximal IOP reduction after instillation (intraocular pressure; 0.001% eye drops): one
Difference in IOP between the control and test eyes (intraocular pressure; 0.01% (free base), 1 hr): -3.44 mmHg
Difference in IOP between the control and test eyes (intraocular pressure; 0.01% (free base), 2 hr): -2.25 mmHg
Difference in IOP between the control and test eyes (intraocular pressure; 0.01% (free base), 4 hr): -1.31 mmHg
Difference in IOP between the control and test eyes (intraocular pressure; 0.01% (free base), 6 hr): -1.00 mmHg
ocular hypotensive effect remained unchanged after instillation (intraocular pressure; 0.01% eye drops): six
time of maximal IOP reduction after instillation (intraocular pressure; 0.01% eye drops): one
Difference in IOP between the control and test eyes (intraocular pressure; 0.1% (free base), 1 hr): -4.50 mmHg
Difference in IOP between the control and test eyes (intraocular pressure; 0.1% (free base), 2 hr): -3.05 mmHg
Difference in IOP between the control and test eyes (intraocular pressure; 0.1% (free base), 4 hr): -2.40 mmHg
Difference in IOP between the control and test eyes (intraocular pressure; 0.1% (free base), 6 hr): -1.00 mmHg
average difference of the IOP from the control eye drops (intraocular pressure; 0.1% eye drops): 4.5 mmHg
ocular hypotensive effect retained after instillation (intraocular pressure; 0.1% eye drops): six
time of maximal IOP reduction after instillation (intraocular pressure; 0.1% eye drops): one
Difference in IOP between the control and test eyes (intraocular pressure; 0.5% (free base), 1 hr): -3.94 mmHg
Difference in IOP between the control and test eyes (intraocular pressure; 0.5% (free base), 2 hr): -4.40 mmHg
Difference in IOP between the control and test eyes (intraocular pressure; 0.5% (free base), 4 hr): -3.10 mmHg
Difference in IOP between the control and test eyes (intraocular pressure; 0.5% (free base), 6 hr): -1.60 mmHg
ocular hypotensive effect remained unchanged after instillation (intraocular pressure; 0.5% eye drops): six
time of maximal IOP reduction after instillation (intraocular pressure; 0.5% eye drops): two
score for the tunica conjunctiva bulbi versus control solution (rabbit eyes; 0.5% eye drops): slightly higher than that for the control solution
Conjunctivae: Chemosis (average score) (rabbit eyes; 0.5% eye drops, 0.5 hours): 0
Conjunctivae: Condition of haw (average score) (rabbit eyes; 0.5% eye drops, 0.5 hours): 0.6
Conjunctivae: Discharge (average score) (rabbit eyes; 0.5% eye drops, 0.5 hours): 0
Conjunctivae: Redness of tunica conjunctivae bulbi (average score) (rabbit eyes; 0.5% eye drops, 0.5 hours): 0.9
Conjunctivae: Redness of tunica conjunctivae palpebrarum (average score) (rabbit eyes; 0.5% eye drops, 0.5 hours): 1.5
Cornea: Area of cornea involved (average score) (rabbit eyes; 0.5% eye drops, 0.5 hours): 0
Cornea: Opacity degree of density (average score) (rabbit eyes; 0.5% eye drops, 0.5 hours): 0
Iris: values (average score) (rabbit eyes; 0.5% eye drops, 0.5 hours): 0.5
congestion in the iris (rabbit eyes; 0.5% eye drops, 0.5 hours after instillation): slight congestion
Conjunctivae: Chemosis (average score) (rabbit eyes; 0.5% eye drops, 1 hour): 0
Conjunctivae: Condition of haw (average score) (rabbit eyes; 0.5% eye drops, 1 hour): 0.5
Conjunctivae: Discharge (average score) (rabbit eyes; 0.5% eye drops, 1 hour): 0
Conjunctivae: Redness of tunica conjunctivae bulbi (average score) (rabbit eyes; 0.5% eye drops, 1 hour): 1.1
Conjunctivae: Redness of tunica conjunctivae palpebrarum (average score) (rabbit eyes; 0.5% eye drops, 1 hour): 1.8
Cornea: Area of cornea involved (average score) (rabbit eyes; 0.5% eye drops, 1 hour): 0
Cornea: Opacity degree of density (average score) (rabbit eyes; 0.5% eye drops, 1 hour): 0
Iris: values (average score) (rabbit eyes; 0.5% eye drops, 1 hour): 1.0
Conjunctivae: Chemosis (average score) (rabbit eyes; 0.5% eye drops, 2 hours): 0
Conjunctivae: Condition of haw (average score) (rabbit eyes; 0.5% eye drops, 2 hours): 0.5
Conjunctivae: Discharge (average score) (rabbit eyes; 0.5% eye drops, 2 hours): 0
Conjunctivae: Redness of tunica conjunctivae bulbi (average score) (rabbit eyes; 0.5% eye drops, 2 hours): 0.9
Conjunctivae: Redness of tunica conjunctivae palpebrarum (average score) (rabbit eyes; 0.5% eye drops, 2 hours): 1.8
Cornea: Area of cornea involved (average score) (rabbit eyes; 0.5% eye drops, 2 hours): 0
Cornea: Opacity degree of density (average score) (rabbit eyes; 0.5% eye drops, 2 hours): 0
Iris: values (average score) (rabbit eyes; 0.5% eye drops, 2 hours): 0.8
Conjunctivae: Chemosis (average score) (rabbit eyes; 0.5% eye drops, 3 hours): 0
Conjunctivae: Condition of haw (average score) (rabbit eyes; 0.5% eye drops, 3 hours): 0.5
Conjunctivae: Discharge (average score) (rabbit eyes; 0.5% eye drops, 3 hours): 0
Conjunctivae: Redness of tunica conjunctivae bulbi (average score) (rabbit eyes; 0.5% eye drops, 3 hours): 0.5
Conjunctivae: Redness of tunica conjunctivae palpebrarum (average score) (rabbit eyes; 0.5% eye drops, 3 hours): 1.3
Cornea: Area of cornea involved (average score) (rabbit eyes; 0.5% eye drops, 3 hours): 0
Cornea: Opacity degree of density (average score) (rabbit eyes; 0.5% eye drops, 3 hours): 0
Iris: values (average score) (rabbit eyes; 0.5% eye drops, 3 hours): 0.5
Conjunctivae: Chemosis (average score) (rabbit eyes; 0.5% eye drops, 6 hours): 0
Conjunctivae: Condition of haw (average score) (rabbit eyes; 0.5% eye drops, 6 hours): 0.5
Conjunctivae: Discharge (average score) (rabbit eyes; 0.5% eye drops, 6 hours): 0
Conjunctivae: Redness of tunica conjunctivae bulbi (average score) (rabbit eyes; 0.5% eye drops, 6 hours): 0.1
Conjunctivae: Redness of tunica conjunctivae palpebrarum (average score) (rabbit eyes; 0.5% eye drops, 6 hours): 0.8
Cornea: Area of cornea involved (average score) (rabbit eyes; 0.5% eye drops, 6 hours): 0
Cornea: Opacity degree of density (average score) (rabbit eyes; 0.5% eye drops, 6 hours): 0
Iris: values (average score) (rabbit eyes; 0.5% eye drops, 6 hours): 0
congestion in the iris (rabbit eyes; 0.5% eye drops, after 6 hours): disappeared
Conjunctivae: Chemosis (average score) (rabbit eyes; [2]): 0
Conjunctivae: Condition of haw (average score) (rabbit eyes; [2]): 0.4
Conjunctivae: Discharge (average score) (rabbit eyes; [2]): 0
Conjunctivae: Redness of tunica conjunctivae bulbi (average score) (rabbit eyes; [2]): 0.1
Conjunctivae: Redness of tunica conjunctivae palpebrarum (average score) (rabbit eyes; [2]): 0.8
Cornea: Area of cornea involved (average score) (rabbit eyes; [2]): 0
Cornea: Opacity degree of density (average score) (rabbit eyes; [2]): 0
Iris: values (average score) (rabbit eyes; [2]): 0
other irritation items, test solution versus control solution (rabbit eyes; 0.5% eye drops, irrespective of time): no difference
irritation to rabbit eyes (overall) (rabbit eyes; eye drops of the present invention): negligible irritation
LD50 ([1]; intravenous injection): 150 mg/kg
LD50 ([1]; subcutaneous administration): 2700 mg/kg

CC(C)(C)NC[C@H](O)COc1nsnc1N1CCOCC1 [Timolol maleate, timolol maleate]
Difference in IOP between the control and test eyes (intraocular pressure; 0.5% (free base), 1 hr): -0.80 mmHg
Difference in IOP between the control and test eyes (intraocular pressure; 0.5% (free base), 2 hr): -0.80 mmHg
Difference in IOP between the control and test eyes (intraocular pressure; 0.5% (free base), 4 hr): -0.25 mmHg
Difference in IOP between the control and test eyes (intraocular pressure; 0.5% (free base), 6 hr): -0.10 mmHg
IOP reduction (intraocular pressure; 0.5% eye drops, one hour after instillation): 0.8 mmHg
IOP reduction (intraocular pressure; 0.5% eye drops, two hours after instillation): 0.8 mmHg
degree of the IOP reduction compared with the 0.0001% eye drops of the invention (intraocular pressure; 0.5% timolol eye drops): significantly less
